Where “and” joins values, the source holds several entries; their conditions need not be identical. Identical values can stand only once. After the bases stand the sugars from the 5' end (letter, count) and the backbone: PS all phosphorothioate, else s phosphorothioate and o phosphodiester by linkage. Methylation of C is not given here. e = 2'-O-(2-methoxyethyl) (MOE); k = constrained ethyl (cEt); d = 2'-deoxy (DNA); m = 2'-O-methyl

The data set deals with HSD17B13. The conditions noted are these: ASO, HepaRG.

In the case of TCCCAACCAAACTTCC (sugars k3 d10 k3, PS), the target mRNA inhibition was 0% (0.02 µM); 0% (0.078 µM); 7% (0.313 µM); 82% (1 µM); 25% (1.25 µM); 63% and 50% (5 µM). On to AAAAAGCTCTATTGGT (sugars k3 d10 k3, PS), for which the target mRNA inhibition (1 µM) was 0%. In the case of TAAAGCTGCCTGCTGA (sugars k3 d10 k3, PS), the target mRNA inhibition (1 µM) worked out at 44%. Under “1 µM”, “GTTTTGGGCTAATGAA (sugars kkdddddddddkekek, PS)” returned a target mRNA inhibition of 42%. For the setting “1 µM”, “ATCTTAAGATACCCAG (sugars k3 d9 k3 e1, PS)” had a target mRNA inhibition of 71%. Same read-out and setting: with GGTAATCTCTTCATCC (sugars k3 d10 k3, PS) the figure was 9%; with ATTAAGCTTAGTATAT (sugars k3 d10 k3, PS), 10%. With CTCGCCTAAAGGAGAT (sugars k3 d10 k3, PS), the target mRNA inhibition (1 µM) worked out at 56%. Still for that read-out and setting: next, AGAATTAAGGGCTATA (sugars k3 d10 k3, PS): 45%. For the sequence ACCAAGGCCATGACAT (sugars k3 d10 k3, PS), the target mRNA inhibition (1 µM) was 17%. AACTTCATAGTGGACT (sugars k3 d10 k3, PS) gave a target mRNA inhibition (1 µM) of 68%. CTCAGAGTTCAGGCAA (sugars k3 d10 k3, PS) came in with a target mRNA inhibition (1 µM) of 67%. ATGTTAGGACCCAGTC (sugars k3 d10 k3, PS): for the setting “1 µM”, the target mRNA inhibition amounted to 60%. Take CTGATTTAGTTGGTAG (sugars k3 d10 k3, PS): the target mRNA inhibition was determined as 0% (0.02 µM); 0% (0.078 µM); 41% (0.313 µM); 78% (1 µM); 70% (1.25 µM); 88% (5 µM). Consider TCTCAAGGAGTACTTC (sugars k3 d10 k3, PS), for which the target mRNA inhibition turned out to be 26% (0.02 µM); 32% (0.078 µM); 58% (0.313 µM); 80% (1 µM); 82% (1.25 µM); 91% (5 µM). Turning to AACTTTTAGTCAGGTA (sugars k3 d10 k3, PS), the target mRNA inhibition (1 µM) was 49%. In the case of GTAAAATTATGCCTTG (sugars k3 d10 k3, PS), under “1 µM”, the target mRNA inhibition was found to be 50%. Still for that read-out and setting: with “CTTAUTGGTAAGTATT (sugars k3 d1 m1 d8 k3, PS)” the figure was 0%; with ATTGCATAAGAGCCAA (sugars k3 d10 k3, PS), 67%; with TTTGGTGGACTTCAGA (sugars k3 d10 k3, PS), 16%. Sequence TGACTGCTGCTAGTGC (sugars k3 d10 k3, PS) registered a target mRNA inhibition (1 µM) of 50%.

On to AAGAGTCAGTATCCTC (sugars k3 d10 k3, PS), for which, under “1 µM”, the target mRNA inhibition is 63%.

Sequence TCTTGACAATGGTTGA (sugars k3 d10 k3, PS) displayed a target mRNA inhibition (1 µM) of 75%.

As to ATTACTTCTGATGTCC (sugars k3 d10 k3, PS), the target mRNA inhibition (1 µM) was determined as 65%. GACATAGACATGTGTT (sugars k3 d10 k3, PS): the target mRNA inhibition (1 µM) stood at 26%. Sequence ATAGCCAGTACAGTTC (sugars k3 d10 k3, PS) showed a target mRNA inhibition (1 µM) of 65%. The same measure, in the same setting: next, GTTTAACTTTCCTCCG (sugars k3 d10 k3, PS): 30%. GTTCTTGTTGATATTC (sugars k3 d10 k3, PS): the target mRNA inhibition runs as follows: (0.02 µM) 35%; (0.078 µM) 51%; (0.313 µM) 77%; (1 µM) 84%; (1.25 µM) 92%; (5 µM) 96%.

In turn, TGGTGAACCCAGTATT (sugars k3 d10 k3, PS) showed a target mRNA inhibition (1 µM) of 0%. ATAGAGTTGCACCGTT (sugars k3 d10 k3, PS): where the note is “1 µM”, the target mRNA inhibition was found to be 57%. As to “CTTTGAGACTCTTGTT (sugars k3 d1 m1 d8 k3, PS)”, the target mRNA inhibition (1 µM) worked out at 15%. In the case of ATACGATGGAACAAAA (sugars k3 d10 k3, PS), the target mRNA inhibition (1 µM) stood at 27%. Under “1 µM”, CTTGGAAGGAGACTGG (sugars k3 d10 k3, PS) displayed a target mRNA inhibition of 60%. For the sequence GGTTCAGTCCTTGTGT (sugars k3 d10 k3, PS), where the note is “1 µM”, the target mRNA inhibition is 57%. For CTAGTTTTCGGCACTC (sugars k3 d10 k3, PS), the target mRNA inhibition (1 µM) worked out at 33%.

As for CAAAGATCTGGCCAGT (sugars k3 d10 k3, PS), the target mRNA inhibition (1 µM) was determined as 1%. Where the note is “1 µM”, “AACAGTCTTAAACCTT (sugars k3 d9 k3 e1, PS)” yielded a target mRNA inhibition of 57%. Where the note is “1 µM”, GAGTTAGGGAGCCAGC (sugars k3 d10 k3, PS) displayed a target mRNA inhibition of 39%. Regarding “CATAACTTCATAGTGG (sugars k3 d9 k3 e1, PS)”, for the setting “1 µM”, the target mRNA inhibition is 16%. Same read-out and setting: with TTCCATAAAGCTGGAT (sugars k3 d10 k3, PS) the figure was 5%; with AGCATTATTCACCACG (sugars k3 d10 k3, PS), 53%; with TGGGACCAAGGATATA (sugars k3 d10 k3, PS), 20%. Consider GCAGAGACAGTAGATT (sugars k3 d10 k3, PS), for which, where the note is “1 µM”, the target mRNA inhibition came to 63%. As for GCATAAGTTACCAGAG (sugars k3 d10 k3, PS), the target mRNA inhibition by setting is: (0.02 µM) 0%; (0.078 µM) 0%; (0.313 µM) 40%; (1 µM) 79%; (1.25 µM) 51%; (5 µM) 85%.

Turning to GATAAAGCTGCCTGCT (sugars k3 d10 k3, PS), the target mRNA inhibition (1 µM) amounted to 42%. In turn, AGCTATTGTCTTTGAT (sugars k3 d10 k3, PS) came in with a target mRNA inhibition (1 µM) of 39%. On to TGAAGCCACTGTGACG (sugars k3 d10 k3, PS), for which the target mRNA inhibition (1 µM) was 49%.

The sequence ATGTCATAAAAATCGC (sugars k3 d10 k3, PS) registered a target mRNA inhibition (1 µM) of 53%. Regarding AATACATTAGCAAGCT (sugars k3 d10 k3, PS), the target mRNA inhibition (1 µM) turned out to be 45%. The sequence CCAACGACTCCAAGTA (sugars k3 d10 k3, PS) gave a target mRNA inhibition (1 µM) of 20%.

With “AGTTATTAGAAGTCAG (sugars k3 d1 m1 d8 k3, PS)”, the target mRNA inhibition (1 µM) amounted to 25%.

In turn, “TGTTGATATTCTGTGG (sugars k3 d9 k3 e1, PS)” showed a target mRNA inhibition (1 µM) of 64%. With CTTCACTATATTGCAT (sugars k3 d10 k3, PS), under “1 µM”, the target mRNA inhibition was determined as 50%.

In the case of “TTGCACCGTTTTGGGC (sugars k3 d1 m1 d8 k3, PS)”, for the setting “1 µM”, the target mRNA inhibition came to 50%. “TATGTAATAGCCAGTA (sugars kkdddddddddkekek, PS)”: the target mRNA inhibition came to 9% (0.02 µM); 33% (0.078 µM); 58% (0.313 µM); 78% (1 µM); 67% (1.25 µM); 85% (5 µM). Turning to “AAAGACTTTGAGACTC (sugars k3 d1 m1 d8 k3, PS)”, the target mRNA inhibition (0.02 µM) was found to be 14%; the target mRNA inhibition (0.078 µM) came to 28%; the target mRNA inhibition (0.313 µM) came to 42%; the target mRNA inhibition (1 µM) stood at 76%; the target mRNA inhibition (1.25 µM) was 66%; the target mRNA inhibition (5 µM) is 77%. The sequence CTCCTGGTACATGCCA (sugars k3 d10 k3, PS) came in with a target mRNA inhibition (1 µM) of 47%.

For “GTGCCAAACCAATGTT (sugars k3 d9 k3 e1, PS)”, the target mRNA inhibition (1 µM) turned out to be 56%. As to “TAAGCAGAATTGTGAA (sugars k3 d1 m1 d8 k3, PS)”, where the note is “1 µM”, the target mRNA inhibition amounted to 26%. For the sequence AATAGCCAGTACAGTT (sugars k3 d10 k3, PS), the target mRNA inhibition (1 µM) is 46%. TGTGAGAGGATAGTGA (sugars k3 d10 k3, PS) returned a target mRNA inhibition (1 µM) of 50%. As to CTTTTGGTGGACTTCA (sugars k3 d10 k3, PS), the target mRNA inhibition (1 µM) was 10%. The same measure, in the same setting: with TATAGTAATCACAAGT (sugars k3 d10 k3, PS) the figure was 53%. The sequence GCCAACACTAATCTCA (sugars k3 d10 k3, PS) came in with a target mRNA inhibition (1 µM) of 40%. AGTGCTTTTGTGATCC (sugars k3 d10 k3, PS): the target mRNA inhibition (1 µM) stood at 25%. Still for that read-out and setting: next, GACAGGTAATTAATCT (sugars k3 d10 k3, PS): 60%. AGACCAAGTAGCTTAC (sugars k3 d10 k3, PS): the target mRNA inhibition (1 µM) was 42%.

Take “AGTCGGTCACCTTTCA (sugars k3 d9 k3 e1, PS)”: the target mRNA inhibition runs as follows: (0.02 µM) 1%; (0.078 µM) 17%; (0.313 µM) 37%; (1 µM) 75%; (1.25 µM) 66%; (5 µM) 62%. TTATTATGTGATTGAG (sugars k3 d10 k3, PS) yielded a target mRNA inhibition (1 µM) of 23%. As for TAGTTATCTTCTCACT (sugars k3 d10 k3, PS), the target mRNA inhibition (1 µM) came out at 52%.

Turning to CTCAAGGAGTACTTCA (sugars k3 d10 k3, PS), the target mRNA inhibition is 2% (0.02 µM); 2% (0.078 µM); 30% (0.313 µM); 82% (1 µM); 78% (1.25 µM); 95% (5 µM). As for ACAATTTTTCCAATCC (sugars k3 d10 k3, PS), the target mRNA inhibition is, setting by setting: (0.02 µM) 9%; (0.078 µM) 37%; (0.313 µM) 62%; (1 µM) 86%; (1.25 µM) 76%; (5 µM) 93%. In the case of AGATGTACACTGACAA (sugars k3 d10 k3, PS), for the setting “1 µM”, the target mRNA inhibition is 66%.

With CGATGGAAGAAGTGCT (sugars k3 d10 k3, PS), the target mRNA inhibition (1 µM) worked out at 3%.

The record behind these values is the OligoGym collection.
